What was measured:
U-87 MG cells = assay: Resazurin cell viability / cytotoxicity assay; assay type: cell-based, human; settings: free drug
Protocol: Regarding cell viability, U-87 MG cells were cultured in DMEM/F-12 medium, supplemented with 10% (v/v) FBS, 1% (v/v) penicillin-streptomycin solution and sodium bicarbonate. Cells were maintained at 37° C. in a humidified atmosphere containing CO2 (5%). The resazurin assay was used to determine the cytotoxicity of NLCs. Briefly, 2000 cells per well were seeded in a 96 well plate and incubated for 24 h or 72 h after the medium was replaced with increasing concentrations of free drugs or NLCs. Subsequently, the medium was removed and the cell viability determined. For this purpose, 100 μL of 10% (w/v) resazurin solution in DMEM/F 12 was added to the cells and incubated for approximately 2 h, at 37° C. The enzymatic reduction of resazurin to resorufin was analyzed by UV/Vis spectrophotometry at 570 nm and 600 nm. Cell viability was assessed indirectly according to equation 1.

human blood = assay: In vitro hemolytic activity (NCL ITA-1 protocol); assay type: cell-based; settings: positive control, 3 h at 37° C.
From the text: The haemolytic behaviour of NLCs formulations was explored following the Nanotechnology Characterization Lab (NCL) protocol for analysis of Haemolytic Properties of Nanoparticles (NCL ITA-1 Version 1.2), with slight modifications. Briefly, fresh human blood was drawn from healthy participants in the Laboratory of Clinical Analysis of the Faculty of Pharmacy of the University of Coimbra, after a written informed consent was obtained from all individuals. The venous blood, collected in heparinised vacutainer tubes, was properly diluted in PBS to final a concentration of 10 mg/mL of total blood haemoglobin, and incubated with the NLCs at eight different concentrations, regarding ATO content for 3 h at 37° C. Aqueous and acetate buffered polysorbate 80 solutions were also tested in 15 and 100 μg/mL. PBS and Triton™ X-100 were used as negative and positive controls, respectively, with additional no-blood controls being used due to possible interference of CUR at 540 nm. Following incubation, cell-free supernatants were obtained and any plasma-free haemoglobin and metabolites were converted into cyanmethaemoglobin (CMH), using Drabkin's reagent. The detection of CMH was conducted at 540 nm and the percentage of haemolysis (%) was calculated taking into account the equation 2.

CC(C)c1c(C(=O)Nc2ccccc2)c(-c2ccccc2)c(-c2ccc(F)cc2)n1CC[C@@H](O)C[C@@H](O)CC(=O)O [ATO, atorvastatin calcium]
IC50 (U-87 MG cells; 24 h of incubation): 134 ± 27 µM
IC50 (U-87 MG cells; 72 h of incubation): 25 ± 5 µM

COc1cc(/C=C/C(=O)CC(=O)/C=C/c2ccc(O)c(OC)c2)ccc1O [CUR, curcumin]
IC50 (U-87 MG cells; Homo sapiens, U-87 MG, 24 h of incubation): 86 ± 35 µM
IC50 (U-87 MG cells; Homo sapiens, U-87 MG, 72 h of incubation): 77 ± 1 µM

Triton™ X-100
hemolysis (human blood): complete hemolysis
